{
  "source": "patent US12012413B2",
  "about": "“Methods of treating painful diabetic peripheral neuropathy” (Tenacia Biotechnology (Hong Kong) Co., Limited, priority 2019, dated 2024)",
  "assay_type_in_all_cases": "physicochemical",
  "key": {"[1]": {"assay": "Solubility and stability of saturated solutions in pH 2-8 buffers at 25° C. (HPLC)", "conditions": "for solubility at 1 day / solubility at 4 days / solubility at 7 days: ca. 25° C., read-out: solubility in an aqueous solvent; for solubility at 1 day: after about 1 day; for solubility at 4 days: after about 4 days; for solubility at 7 days: after about 7 days", "method": "Crystalline, monohydrate Form MH of (2S,3R)-3-hydroxy-2-((R)-5-isobutyryl-1-oxo-2,5-diazaspiro[3.4]octan-2-yl)butanamide was prepared as follows. Saturated solutions of 3-hydroxy-2-(5-isobutyryl-1-oxo-2,5-diazaspiro[3.4]octan-2-yl)butanamide were prepared in pH 2, pH 3, pH 5, pH 7, and pH 8 buffers and were stirred at 25° C. Aliquots were taken after 1 day, 4 days, and 7 days and centrifuged at 12,500 rpm for 15 minutes. The supernatant was analyzed for sample concentration by HPLC, and the residual solids were analyzed by XRPD after 1 day, 4 days, and 7 days."}, "[2]": {"assay": "Approximate solubility by stepwise dilution in solvents and solvent mixtures", "conditions": "22 °C, about 22° C., read-out: Solubility S", "method": "Approximate solubilities were determined by a stepwise dilution of a suspension of about 10 mg of substance in 0.05 mL of solvent. If the substance was not dissolved by addition of a total of at least 10 ml solvent, the solubility was indicated as <1 mg/mL. For all experiments, analytical grade solvents were used.\nThe approximate solubility of crystalline, monohydrate Form MH of NYX-2925 across a range of solvents and solvent mixtures (expressed in volume ratios measured at about 22° C.) is provided in Table 8, below."}, "[3]": {"assay": "Solid form conversion / physical stability (XRPD)", "conditions": "ambient conditions of temperature and humidity; versus anhydrous Forms A, B, and C", "method": "X-ray powder diffraction (XRPD) analysis was carried out on a Stoe Stadi P with Mythen1K detector; Cu-Kα1 radiation; 40 kV and 40 mA tube power; curved Ge monochromator; 0.02° 2θ step size, 12 s step time, 1.5-50.5° 2θ scanning range; detector mode: step scan; 1° 2θ detector step. The sample (about 20 mg) was placed between two acetate foils and clamped in a Stoe transmission sample holder. The sample holder was rotated during the measurement.\nX-ray powder diffraction (XRPD) analysis was also carried out on a on a Bruker D8 Advance; Cu-Kα radiation; standard measurement conditions: Bragg-Brentano reflection geometry; 40 kV and 40 mA tube power; LynxEye detector; 0.02° 2θ step size, 37 s step time, 2.5-50.5° 2θ scanning range (about 10 min measurement time. The sample was spread on a silicon single crystal substrate without cavity and flattened to fit to the 0.1 mm depth of the sample holder.\nCrystalline, anhydrous Form C material of 3-hydroxy-2-(5-isobutyryl-1-oxo-2,5-diazaspiro[3.4]octan-2-yl)butanamide is not stable in comparison to anhydrous Form A or anhydrous Form B under ambient conditions of temperature and humidity. […] In turn, anhydrous Form A and anhydrous Form B each convert to monohydrate Form MH under the conditions described above."}, "[4]": {"assay": "Stability of monohydrate drug substance and oral capsules on storage", "from_the_text": "NYX-2925 monohydrate drug product was formulated with the pharmaceutically acceptable excipients: microcrystalline cellulose, starch, and magnesium stearate."}, "[5]": {"assay": "Dynamic vapor sorption (DVS) profile", "from_the_text": "FIG. 4 depicts the dynamic sorption vapor (DVS) profile of crystalline, monohydrate Form MH of NYX-2925. […] This is a fully reversible process and the sample loses this water when decreasing the relative humidity with a negligible hysteresis. At low relative humidity there is the release and uptake of about 5.5 wt. % in the range of about 0% to about 15% relative humidity with about 10% relative humidity hysteresis. The monohydrate Form MH of NYX-2925 retains about 5.7 weight % water content, corresponding to the stoichiometric water content of the, monohydrate, over the range of about 10% to about 80% relative humidity with less than 0.5 wt. % change. There is minimal water uptake above 80% relative humidity and about 1 weight % gain in the 90% to 95% relative humidity range."}, "[6]": {"conditions": "aqueous buffer, pH 2, aqueous buffer, thermodynamic from solid, pH of about 2"}, "[7]": {"conditions": "aqueous buffer, pH 3, aqueous buffer, thermodynamic from solid, pH of about 3"}, "[8]": {"conditions": "aqueous buffer, pH 5, aqueous buffer, thermodynamic from solid, pH of about 5"}, "[9]": {"conditions": "aqueous buffer, pH 7, aqueous buffer, thermodynamic from solid, pH of about 7"}, "[10]": {"conditions": "aqueous buffer, pH 8, aqueous buffer, thermodynamic from solid, pH of about 8"}},
  "note": "Like-named read-outs stand apart in the source and are kept apart here.",
  "data": [
    {"smiles": "CC(C)C(=O)N1CCC[C@]12CN([C@H](C(N)=O)[C@@H](C)O)C2=O", "note": "[Form MH, (2S,3R)-3-hydroxy-2-((R)-5-isobutyryl-1-oxo-2,5-diazaspiro[3.4]octan-2-yl)butanamide]", "values": [
      {"measurement": "solubility at 1 day", "setting": "[1]; [6]", "value": "~54.1", "unit": "mg/mL"},
      {"measurement": "solubility at 4 days", "setting": "[1]; [6]", "value": "~53.5", "unit": "mg/mL"},
      {"measurement": "solubility at 7 days", "setting": "[1]; [6]", "value": "~53.5", "unit": "mg/mL"},
      {"measurement": "solubility at 1 day", "setting": "[1]; [7]", "value": "~54.2", "unit": "mg/mL"},
      {"measurement": "solubility at 4 days", "setting": "[1]; [7]", "value": "~53.2", "unit": "mg/mL"},
      {"measurement": "solubility at 7 days", "setting": "[1]; [7]", "value": "~52.4", "unit": "mg/mL"},
      {"measurement": "solubility at 1 day", "setting": "[1]; [8]", "value": "~52.5", "unit": "mg/mL"},
      {"measurement": "solubility at 4 days", "setting": "[1]; [8]", "value": "~53.2", "unit": "mg/mL"},
      {"measurement": "solubility at 7 days", "setting": "[1]; [8]", "value": "~52.4", "unit": "mg/mL"},
      {"measurement": "solubility at 1 day", "setting": "[1]; [9]", "value": "~52.6", "unit": "mg/mL"},
      {"measurement": "solubility at 4 days", "setting": "[1]; [9]", "value": "~53", "unit": "mg/mL"},
      {"measurement": "solubility at 7 days", "setting": "[1]; [9]", "value": "~52.3", "unit": "mg/mL"},
      {"measurement": "solubility at 1 day", "setting": "[1]; [10]", "value": "~52.7", "unit": "mg/mL"},
      {"measurement": "solubility at 4 days", "setting": "[1]; [10]", "value": "~51.6", "unit": "mg/mL"},
      {"measurement": "solubility at 7 days", "setting": "[1]; [10]", "value": "~52.6", "unit": "mg/mL"},
      {"measurement": "solubility thermodynamic at 7 days", "setting": "[1]; pH 2, pH 3, pH 5, pH 7 and pH 8 buffers, aqueous buffer, thermodynamic from solid, pH ranges of 2-8, 25° C., after 7 days, read-out: saturated concentration in buffers", "value": "~50", "unit": "mg/mL"},
      {"measurement": "stability in saturated buffer solutions (HPLC analysis)", "setting": "[1]; pH ranges of 2-8, 25° C., after 7 days", "value": "stable"},
      {"measurement": "solubility", "setting": "[2]; 1,4-dioxane, organic solvent or mixture, thermodynamic from solid, 1,4-dioxane", "value": "28 to 31", "unit": "mg/mL"},
      {"measurement": "solubility", "setting": "[2]; 1/1 dichloromethane/methanol (v/v), organic solvent or mixture, thermodynamic from solid, 1/1 dichloromethane/methanol (volume ratio)", "value": "> 200", "unit": "mg/mL"},
      {"measurement": "solubility", "setting": "[2]; 1/1 ethanol/water (v/v), aqueous with cosolvent or surfactant or cyclodextrin, thermodynamic from solid, 1/1 ethanol/water (volume ratio)", "value": "69 to 103", "unit": "mg/mL"},
      {"measurement": "solubility", "setting": "[2]; 1/1 isopropanol/water (v/v), aqueous with cosolvent or surfactant or cyclodextrin, thermodynamic from solid, 1/1 isopropanol/water (volume ratio)", "value": "71 to 107", "unit": "mg/mL"},
      {"measurement": "solubility", "setting": "[2]; 1/1 methanol/water (v/v), aqueous with cosolvent or surfactant or cyclodextrin, thermodynamic from solid, 1/1 methanol/water (volume ratio)", "value": "> 200", "unit": "mg/mL"},
      {"measurement": "solubility", "setting": "[2]; 10/1 ethyl acetate/ethanol (v/v), organic solvent or mixture, thermodynamic from solid, 10/1 ethyl acetate/ethanol (volume ratio)", "value": "32 to 39", "unit": "mg/mL"},
      {"measurement": "solubility", "setting": "[2]; 10/1 isopropanol/water (v/v), organic solvent or mixture, thermodynamic from solid, 10/1 isopropanol/water (volume ratio)", "value": "36 to 41", "unit": "mg/mL"},
      {"measurement": "solubility", "setting": "[2]; acetone, organic solvent or mixture, thermodynamic from solid, acetone", "value": "57 to 76", "unit": "mg/mL"},
      {"measurement": "solubility", "setting": "[2]; acetonitrile, organic solvent or mixture, thermodynamic from solid, acetonitrile", "value": "118 to 230", "unit": "mg/mL"},
      {"measurement": "solubility", "setting": "[2]; aniline, organic solvent or mixture, thermodynamic from solid, aniline", "value": "> 200", "unit": "mg/mL"},
      {"measurement": "solubility", "setting": "[2]; anisole, organic solvent or mixture, thermodynamic from solid, anisole", "value": "~3", "unit": "mg/mL"},
      {"measurement": "solubility", "setting": "[2]; cyclohexane, organic solvent or mixture, thermodynamic from solid, cyclohexane", "value": "~1", "unit": "mg/mL"},
      {"measurement": "solubility", "setting": "[2]; dichloromethane, organic solvent or mixture, thermodynamic from solid, dichloromethane", "value": "55 to 73", "unit": "mg/mL"},
      {"measurement": "solubility", "setting": "[2]; diisopropyl ether, organic solvent or mixture, thermodynamic from solid, diisopropyl ether", "value": "< 1", "unit": "mg/mL"},
      {"measurement": "solubility", "setting": "[2]; dimethyl sulfoxide, organic solvent or mixture, thermodynamic from solid, dimethyl sulfoxide", "value": "> 200", "unit": "mg/mL"},
      {"measurement": "solubility", "setting": "[2]; dimethylformamide, organic solvent or mixture, thermodynamic from solid, dimethylformamide", "value": "> 200", "unit": "mg/mL"},
      {"measurement": "solubility", "setting": "[2]; ethanol, organic solvent or mixture, thermodynamic from solid, ethanol", "value": "> 200", "unit": "mg/mL"},
      {"measurement": "solubility", "setting": "[2]; ethyl acetate saturated with water, organic solvent or mixture, thermodynamic from solid, ethyl acetate saturated with water", "value": "6 to 8", "unit": "mg/mL"},
      {"measurement": "solubility", "setting": "[2]; ethyl acetate, organic solvent or mixture, thermodynamic from solid, ethyl acetate", "value": "13 to 15", "unit": "mg/mL"},
      {"measurement": "solubility", "setting": "[2]; heptane, organic solvent or mixture, thermodynamic from solid, heptane", "value": "< 1", "unit": "mg/mL"},
      {"measurement": "solubility", "setting": "[2]; isopropanol, organic solvent or mixture, thermodynamic from solid, isopropanol", "value": "45 to 60", "unit": "mg/mL"},
      {"measurement": "solubility", "setting": "[2]; isopropyl acetate, organic solvent or mixture, thermodynamic from solid, isopropyl acetate", "value": "5 to 6", "unit": "mg/mL"},
      {"measurement": "solubility", "setting": "[2]; methanol, organic solvent or mixture, thermodynamic from solid, methanol", "value": "> 200", "unit": "mg/mL"},
      {"measurement": "solubility", "setting": "[2]; methyl ethyl ketone, organic solvent or mixture, thermodynamic from solid, methyl ethyl ketone", "value": "32 to 38", "unit": "mg/mL"},
      {"measurement": "solubility", "setting": "[2]; tert-butyl methyl ether saturated with water, organic solvent or mixture, thermodynamic from solid, tert-butyl methyl ether saturated with water", "value": "< 1", "unit": "mg/mL"},
      {"measurement": "solubility", "setting": "[2]; tert-butyl methyl ether, organic solvent or mixture, thermodynamic from solid, tert-butyl methyl ether", "value": "< 1", "unit": "mg/mL"},
      {"measurement": "solubility", "setting": "[2]; tetrahydrofuran, organic solvent or mixture, thermodynamic from solid, tetrahydrofuran", "value": "31 to 36", "unit": "mg/mL"},
      {"measurement": "solubility", "setting": "[2]; toluene, organic solvent or mixture, thermodynamic from solid, toluene", "value": "< 1", "unit": "mg/mL"},
      {"measurement": "solubility", "setting": "[2]; triethylamine, organic solvent or mixture, thermodynamic from solid, triethylamine", "value": "< 1", "unit": "mg/mL"},
      {"measurement": "solubility", "setting": "[2]; water, water, thermodynamic from solid, water", "value": "26 to 30", "unit": "mg/mL"},
      {"measurement": "relative stability of crystalline forms", "setting": "[3]", "value": "more stable"},
      {"measurement": "changes in impurity profile or other quality attributes (appearance, assay, water content, microbial examination, XRPD)", "setting": "[4]; 6 months at 40° C./75% relative humidity", "value": "no significant changes"},
      {"measurement": "changes in impurity profile or other quality attributes (appearance, assay, water content, microbial examination, XRPD)", "setting": "[4]; 12 months at 25° C./60% relative humidity", "value": "no significant changes"},
      {"measurement": "DVS weight gain", "setting": "[5]; 90% to 95% relative humidity range", "value": "about 1 weight %"},
      {"measurement": "DVS release and uptake of water (reversible weight loss)", "setting": "[5]; about 0% to about 15% relative humidity, about 10% RH hysteresis", "value": "about 5.5 wt. %"},
      {"measurement": "DVS water content retained", "setting": "[5]; about 10% to about 80% relative humidity", "value": "about 5.7 weight %"},
      {"measurement": "DVS continuous reversible uptake of water", "setting": "[5]; from about 50% to about 95% relative humidity, mainly above 90%", "value": "about 1.5 wt. %"},
      {"measurement": "DVS change in water content", "setting": "[5]; over about 10% to about 80% relative humidity", "value": "less than 0.5 wt. %"}
    ]}
  ]
}
